In ChEMBL document CHEMBL1629678, “Apricitabine does not select additional drug resistance mutations in tissue culture in human immunodeficiency virus type 1 variants containing K65R, M184V, or M184V plus thymidine analogue mutations” (Antimicrob Agents Chemother, 2009):

How the values were obtained:
[1] = test system: Human immunodeficiency virus 1; assay: Selectivity ratio of IC50 for 32 week drug adapted HIV1 HXB-2D harboring reverse transcriptase K65R mutant gene to IC50 for HIV1 HXB-2D harboring reverse transcriptase K65R mutant gene; format: functional
[2] = test system: Human immunodeficiency virus 1; assay: Selectivity ratio of IC50 for 17 week drug adapted HIV1 HXB-2D harboring reverse transcriptase S68S/G mutant gene to IC50 for HIV1 HXB-2D harboring reverse transcriptase K65R mutant gene; format: functional
[3] = test system: Human immunodeficiency virus 1; assay: Selectivity ratio of IC50 for 8 week drug adapted HIV1 HXB-2D harboring reverse transcriptase K65R mutant gene to IC50 for HIV1 HXB-2D harboring reverse transcriptase K65R mutant gene; format: functional
[4] = test system: Human immunodeficiency virus 1; assay: Selectivity ratio of IC50 for 38 week drug adapted HIV1 HXB-2D harboring reverse transcriptase S68S/G mutant gene to IC50 for HIV1 HXB-2D harboring reverse transcriptase K65R mutant gene; format: functional
[5] = test system: Human immunodeficiency virus 1; assay: Selectivity ratio of IC50 for 17 week drug adapted HIV1 HXB-2D harboring reverse transcriptase D237N mutant gene to IC50 for HIV1 HXB-2D harboring wild type reverse transcriptase; format: functional
[6] = test system: Human immunodeficiency virus 1; assay: Selectivity ratio of IC50 for 8 week drug adapted HIV1 HXB-2D harboring reverse transcriptase D237N mutant gene to IC50 for HIV1 HXB-2D harboring wild type reverse transcriptase; format: functional
[7] = test system: Human immunodeficiency virus 1; assay: Selectivity ratio of IC50 for 32 week drug adapted HIV1 HXB-2D harboring wild type reverse transcriptase to IC50 for HIV1 HXB-2D harboring wild type reverse transcriptase; format: functional
[8] = test system: Human immunodeficiency virus 1; assay: Selectivity ratio of IC50 for 38 week drug adapted HIV1 HXB-2D harboring reverse transcriptase I50T/II, D237N/D mutant gene to IC50 for HIV1 HXB-2D harboring wild type reverse transcriptase; format: functional
[9] = test system: Human immunodeficiency virus 1; assay: Selectivity ratio of IC50 for 48 week drug adapted HIV1 HXB-2D harboring reverse transcriptase M184V mutant gene to IC50 for HIV1 HXB-2D harboring wild type reverse transcriptase; format: functional
[10] = test system: Human immunodeficiency virus 1; assay: Selectivity ratio of IC50 for 51 week drug adapted HIV1 HXB-2D harboring reverse transcriptase M184V, K65R mutant gene to IC50 for HIV1 HXB-2D harboring wild type reverse transcriptase; format: functional
[11] = test system: Human immunodeficiency virus 1; assay: Selectivity ratio of IC50 for 51 week drug adapted HIV1 HXB-2D harboring reverse transcriptase M184V/M, K65R mutant gene to IC50 for HIV1 HXB-2D harboring wild type reverse transcriptase; format: functional
[12] = test system: Human immunodeficiency virus 1; assay: Selectivity ratio of IC50 for 8 week drug adapted HIV1 HXB-2D harboring reverse transcriptase M184V, M41L, T215Y mutant gene to IC50 for HIV1 HXB-2D harboring reverse transcriptase M184V, M41L, T215Y mutant gene; format: functional
[13] = test system: Human immunodeficiency virus 1; assay: Selectivity ratio of IC50 for 20 week drug adapted HIV1 HXB-2D harboring reverse transcriptase M184V, M41L, T215Y mutant gene to IC50 for HIV1 HXB-2D harboring reverse transcriptase M184V, M41L, T215Y mutant gene; format: functional
[14] = test system: Human immunodeficiency virus 1; assay: Selectivity ratio of IC50 for 28 week drug adapted HIV1 HXB-2D harboring reverse transcriptase M184V, M41L, T215Y mutant gene to IC50 for HIV1 HXB-2D harboring reverse transcriptase M184V, M41L, T215Y mutant gene; format: functional
[15] = test system: Human immunodeficiency virus 1; assay: Selectivity ratio of IC50 for HIV1 HXB-2D harboring reverse transcriptase M184V, M41L and T215Y mutant gene to IC50 for wild type HIV1 HXB-2D infected in human cord blood mononuclear cells; format: functional
[16] = test system: Human immunodeficiency virus 1; assay: Selectivity ratio of IC50 for HIV1 HXB-2D harboring reverse transcriptase K65R mutant gene to IC50 for wild type HIV1 HXB-2D infected in human cord blood mononuclear cells; format: functional
[17] = test system: Human immunodeficiency virus 1; assay: Selectivity ratio of IC50 for HIV1 HXB-2D harboring reverse transcriptase M184V mutant gene to IC50 for wild type HIV1 HXB-2D infected in human cord blood mononuclear cells; format: functional
[18] = test system: Human immunodeficiency virus 1; assay: Antiviral activity against HIV1 HXB-2D harboring reverse transcriptase M184V, M41L and T215Y mutant gene infected in human cord blood mononuclear cells; format: functional, organism-based; settings: Human immunodeficiency virus 1, HXB-2D
[19] = test system: Human immunodeficiency virus 1; assay: Antiviral activity against HIV1 HXB-2D harboring reverse transcriptase K65R mutant gene infected in human cord blood mononuclear cells; format: functional, organism-based; settings: Human immunodeficiency virus 1, HXB-2D
[20] = test system: Human immunodeficiency virus 1; assay: Antiviral activity against HIV1 HXB-2D harboring reverse transcriptase M184V mutant gene infected in human cord blood mononuclear cells; format: functional, organism-based; settings: Human immunodeficiency virus 1, HXB-2D
[21] = test system: Human immunodeficiency virus 1; assay: Antiviral activity against wild type HIV1 HXB-2D infected in human cord blood mononuclear cells; format: functional, organism-based; settings: Human immunodeficiency virus 1, HXB-2D
[22] = test system: Human immunodeficiency virus 1; assay: Selectivity ratio of IC50 for 38 week drug adapted HIV1 HXB-2D harboring reverse transcriptase V101I/V, D177N, E194G mutant gene to IC50 for HIV1 HXB-2D harboring reverse transcriptase M184V mutant gene; format: functional
[23] = test system: Human immunodeficiency virus 1; assay: Selectivity ratio of IC50 for 32 week drug adapted HIV1 HXB-2D harboring reverse transcriptase V101I/V, D177N, E194G mutant gene to IC50 for HIV1 HXB-2D harboring reverse transcriptase M184V mutant gene; format: functional
[24] = test system: Human immunodeficiency virus 1; assay: Selectivity ratio of IC50 for 8 week drug adapted HIV1 HXB-2D harboring reverse transcriptase F87L/F mutant gene to IC50 for HIV1 HXB-2D harboring reverse transcriptase M184V mutant gene; format: functional
[25] = test system: Human immunodeficiency virus 1; assay: Selectivity ratio of IC50 for 17 week drug adapted HIV1 HXB-2D harboring reverse transcriptase D177N/D, E194E/G mutant gene to IC50 for HIV1 HXB-2D harboring reverse transcriptase M184V mutant gene; format: functional

Nc1ccn([C@H]2CO[C@@H](CO)S2)c(=O)n1 [APRICITABINE]
fold change (FC) [1]: 2.5 | fold change (FC) [2]: 0.5 | fold change (FC) [3]: 0.5 | fold change (FC) [4]: 3 | fold change (FC) [5]: 1.3 | fold change (FC) [6]: 4 | fold change (FC) [7]: 4 | fold change (FC) [8]: 8 | fold change (FC) [9]: 8 | fold change (FC) [10]: 8 | fold change (FC) [11]: 13.3 | fold change (FC) [12]: 0.7 | fold change (FC) [13]: 3.7 | fold change (FC) [14]: 3.7 | fold change (FC) [15]: 1.77 | fold change (FC) [16]: 2.69 | fold change (FC) [17]: 2.37 | IC50 [18]: 13.4 µM | IC50 [19]: 20.3 µM | IC50 [20]: 17.9 µM | IC50 [21]: 7.54 µM | fold change (FC) [22]: 3.4 | fold change (FC) [23]: 3.4 | fold change (FC) [24]: 1.7 | fold change (FC) [25]: 1.1
